Earlier results, collected in patent US12234492B2, “Microorganism for fermentative production of 2-phenylethanol from gaseous substrates” (LanzaTech, Inc., priority 2020, dated 2025).
Several values for one entry are separate records, joined by “and”; a condition that tells them apart may be missing. Equal entries are not always repeated.

What was measured:
Staphylococcus aureus = conditions: range given jointly for S. aureus and E. faecium; Cone et al. 1990
Enterococcus faecium = conditions: range given jointly for S. aureus and E. faecium; Cone et al. 1990

OCCc1ccccc1 [2-PE, 2-phenylethanol]
growth inhibitory level (Staphylococcus aureus): 26-43 mM and 3.2-5.3 g/L | growth inhibitory level (Enterococcus faecium): 26-43 mM and 3.2-5.3 g/L
